# From patent US12528837B2, “Aryl substituted polymyxin derivatives” (priority 2018, dated 2026)
# Where two headings read alike, the source gives them in different places. *1 amine or outer side, *2 acyl side, *3 side chain or, on linkers, in order; H or OH if unused. Where a SMILES comes first, the peptide text is derived from it. Bridges are numbered along the chain shown (N, C = ends). [ ]: non-standard residue; d: D form. The star is where a group is joined. GABA(3S-Bn) = O=C(C[C@@H](CN[*:1])Cc1ccccc1)[*:2]; GABA(3R-Bn) = O=C(C[C@H](CN[*:1])Cc1ccccc1)[*:2]; X14 = NC[C@@H](CC(=O)*)c1cccc(-c2ccsc2)c1; X20 = NC[C@H](CC(=O)*)c1cccc(-c2ccccc2)c1; X23 = NC[C@H](CC(=O)*)c1cccc(-c2ccsc2)c1; X18 = NC[C@@H](CC(=O)*)c1cc(Cl)cc(Cl)c1; X24 = NCC[C@@H](C(=O)*)c1ccc(Cl)cc1; X25 = NCC[C@@H](C(=O)*)c1cccc(Cl)c1; X1 = NC[C@@H](CC(=O)*)c1cccc(Cl)c1; X10 = Cc1cccc([C@@H](CN)CC(=O)*)c1; dNle = CCCC[C@@H](N)C(=O)O; Dab = NCC[C@H](N)C(=O)O; Abu = CC[C@H](N)C(=O)O; Dap = NC[C@H](N)C(=O)O
# Tests used:
# [1] = system: E. coli CA58; type: cell-based
# Experimental: (§1) The inoculum was prepared by making a direct suspension of isolated colonies (selected from an 18-24 hour Mueller-Hinton agar plate) adjusted to the 0.5 McFarland standard. […] The assays were performed in duplicate. […] Several of the compounds were subjected to multiple tests, and where this is the case, the MIC presented is the median value obtained. The MIC values are quoted in μg/mL.
# [2] = system: K. pneumoniae CA64; type: cell-based
# Experimental: as §1
# [3] = system: P. aeruginosa CCUG 59347; type: cell-based
# Experimental: as §1
# [4] = system: E. coli ATCC 25922; type: cell-based; conditions: cation-adjusted Mueller-Hinton Broth, 18-20 h, 35° C.
# Experimental: (§2) The inoculum was prepared by making a direct suspension of isolated colonies (selected from an 18-24 hour Mueller-Hinton agar plate) adjusted to the 0.5 McFarland standard. […] The assays were performed in duplicate. […] The MIC values are quoted in μg/mL.
# [5] = system: A. baumannii NCTC 13424; type: cell-based
# Experimental: as §2
# [6] = system: P. aeruginosa ATCC 27853; type: cell-based
# Experimental: as §2
# [7] = system: HK-2 cells; assay: In vitro renal cell toxicity assay (HK-2); type: cell-based
# Experimental: The in vitro renal cell toxicity assay was performed according to the following protocol. […] Cells were seeded at 7,500 cells per well in 96-well plates and allowed to adhere overnight. […] Water and DMSO levels were kept constant at 5% and 0.5% respectively. The test compounds were incubated with cells for 24 h at 37° C. 5% CO2 in a humidified atmosphere. […] Media only background values were subtracted before the data was analysed using GraphPad Prism. Individual values were normalised to the vehicle control wells for each compound. Compound concentration values were plotted as log values to enable a dose-response curve to be fitted. The bottom of the curve was constrained to zero and IC50 values were determined. IC50 values are expressed relative to that for PMB in the same experiment. Where multiple determinations have been made, median values are presented.
# [8] = Kidney drug level after subcutaneous dose in mouse; type: in vivo; conditions: mouse, in vivo
# Experimental: Four hours after dosing the animals were euthanised and kidneys removed, trimmed of fat and connective tissue, weighed and immediately snap-frozen. After thawing at room temperature, pairs of kidneys from each animal were placed in 2 mL conical tubes containing pre-weighed ceria-stabilised zirconium oxide beads. […] After 10 min. centrifugation at 13,000 rpm and 6° C., 200 μl of the supernatants were transferred into glass inserts and analysed by LC-MS-MS.
# [9] = system: K. pneumoniae ATCC 13822; type: cell-based
# Experimental: as §2
# [10] = cation-adjusted Mueller-Hinton Broth, 18-20 h, 35° C.
Structure (SMILES),"tissue level at time at 4 h ([8]; sc, 17.2 mg/kg)",MIC E. coli CA58 ([1]; CA58),MIC K. pneumoniae CA64 ([2]; CA64),MIC P. aeruginosa CCUG 59347 ([3]; CCUG 59347),MIC P. aeruginosa ATCC 27853 ([6]; ATCC 27853),"MIC E. coli CA58 [1, 10]","MIC K. pneumoniae CA64 [2, 10]","MIC P. aeruginosa CCUG 59347 [3, 10]","MIC P. aeruginosa ATCC 27853 [6, 10]",HK-2 rel to PMB [7],also measured
"CC(C)C[C@@H]1NC(=O)[C@@H](CC(C)C)NC(=O)[C@H](CCN)NC(=O)[C@@H](NC(=O)[C@H](CN)NC(=O)[C@@H](NC(=O)C[C@H](CN)Cc2ccccc2)[C@@H](C)O)CCNC(=O)[C@H]([C@@H](C)O)NC(=O)[C@H](CCN)NC(=O)[C@H](CCN)NC1=O [Example 7, (R)-4-amino-3- benzylbutanoyl -Thr- Dap-Cyclo[Dab-Dab- DLeu-Leu-Dab-Dab- Thr]. Isomer 1] ({GABA(3R-Bn)}-T[Dap][Dab][Dab][dL]L[Dab][Dab]T; lactam 3-C)",,,,,,16 µg/mL,32 µg/mL,0.25 µg/mL,,,MIC E. coli ATCC 25922 [4]: 0.25 µg/mL
"CC(C)C[C@@H]1NC(=O)[C@@H](CC(C)C)NC(=O)[C@H](CCN)NC(=O)[C@@H](NC(=O)[C@H](CN)NC(=O)[C@@H](NC(=O)C[C@@H](CN)Cc2ccccc2)[C@@H](C)O)CCNC(=O)[C@H]([C@@H](C)O)NC(=O)[C@H](CCN)NC(=O)[C@H](CCN)NC1=O [Example 8, (S)-4-amino-3- benzylbutanoyl-Thr- Dap-Cyclo[Dab-Dab- DLeu-Leu-Dab-Dab- Thr], Isomer 2] ({GABA(3S-Bn)}-T[Dap][Dab][Dab][dL]L[Dab][Dab]T; lactam 3-C)",,,,,,16 µg/mL,32 µg/mL,0.5 µg/mL,0.06 µg/mL,,"MIC A. baumannii NCTC 13424 [5, 10]: 0.25 µg/mL"
"Cc1cccc([C@@H](CN)CC(=O)N[C@H](C(=O)N[C@@H](CN)C(=O)N[C@H]2CCNC(=O)[C@H]([C@@H](C)O)NC(=O)[C@H](CCN)NC(=O)[C@H](CCN)NC(=O)[C@H](CC(C)C)NC(=O)[C@@H](Cc3ccccc3)NC(=O)[C@H](CCN)NC2=O)[C@@H](C)O)c1 [Example 21, (S)-4-amino-3-(m- tolyl)butanoyl-Thr- Dap-Cyclo[Dab-Dab- DPhe-Leu-Dab-Dab- Thr]] (X10-T[Dap][Dab][Dab][dF]L[Dab][Dab]T; lactam 3-C)",209000 ng/g,16 µg/mL,32 µg/mL,0.5 µg/mL,0.25 µg/mL,,,,,26.7,MIC K. pneumoniae ATCC 13822 ([9]; ATCC 13822): 0.25 µg/mL
CC[C@@H]1NC(=O)[C@@H](CC(C)C)NC(=O)[C@H](CCN)NC(=O)[C@@H](NC(=O)[C@H](CN)NC(=O)[C@@H](NC(=O)C[C@H](CN)c2cccc(Cl)c2)[C@@H](C)O)CCNC(=O)[C@H]([C@@H](C)O)NC(=O)[C@H](CCN)NC(=O)[C@H](CCN)NC1=O [Example 23] (X1-T[Dap][Dab][Dab][dL][Abu][Dab][Dab]T; lactam 3-C),,,,,,32 µg/mL,64 µg/mL,0.5 µg/mL,0.25 µg/mL,,"HK-2 rel to PMB ([7]; IC50 relative to PMB in the same experiment, 24 h): >41; tissue level at time at 4 h ([8]; mice, 17.2 mg/kg free base sc, 4 h, read-out: 4 hr kidney level): 263000 ng/g"
CC[C@@H]1NC(=O)[C@@H](CC(C)C)NC(=O)[C@H](CCN)NC(=O)[C@@H](NC(=O)[C@H](CN)NC(=O)[C@@H](NC(=O)C[C@@H](CN)c2cccc(-c3ccccc3)c2)[C@@H](C)O)CCNC(=O)[C@H]([C@@H](C)O)NC(=O)[C@H](CCN)NC(=O)[C@H](CCN)NC1=O [Example 25] (X20-T[Dap][Dab][Dab][dL][Abu][Dab][Dab]T; lactam 3-C),,,,,,16 µg/mL,2 µg/mL,0.5 µg/mL,0.25 µg/mL,,"MIC E. coli ATCC 25922 [4]: 0.25 µg/mL; MIC K. pneumoniae ATCC 13822 [9, 10]: 0.5 µg/mL"
CC(C)C[C@@H]1NC(=O)[C@@H](Cc2ccccc2)NC(=O)[C@H](CCN)NC(=O)[C@@H](NC(=O)[C@H](CN)NC(=O)[C@@H](NC(=O)[C@H](CCN)c2ccc(Cl)cc2)[C@@H](C)O)CCNC(=O)[C@H]([C@@H](C)O)NC(=O)[C@H](CCN)NC(=O)[C@H](CCN)NC1=O [reference compound] (X24-T[Dap][Dab][Dab][dF]L[Dab][Dab]T; lactam 3-C),,,,,,,,,,,"Cytotoxicity (measured IC50 relative to that recorded for Polymyxin B) [7]: 4.8; 4 hr kidney level/rel. cytotoxicity [8]: 111; Drug Level in Kidney (μg/g kidney, 4 h) ([8]; sc, 17.2 mg/kg): 533 μg/g kidney"
CC(C)C[C@@H]1NC(=O)[C@@H](Cc2ccccc2)NC(=O)[C@H](CCN)NC(=O)[C@@H](NC(=O)[C@H](CN)NC(=O)[C@@H](NC(=O)[C@H](CCN)c2cccc(Cl)c2)[C@@H](C)O)CCNC(=O)[C@H]([C@@H](C)O)NC(=O)[C@H](CCN)NC(=O)[C@H](CCN)NC1=O [reference compound] (X25-T[Dap][Dab][Dab][dF]L[Dab][Dab]T; lactam 3-C),,,,,,,,,,,"Cytotoxicity (measured IC50 relative to that recorded for Polymyxin B) [7]: 5.1; 4 hr kidney level/rel. cytotoxicity [8]: 115; Drug Level in Kidney (μg/g kidney, 4 h) ([8]; sc, 17.2 mg/kg): 589 μg/g kidney"

# More lines, main results first:
"tissue level at time at 4 h ([8]; sc, 17.2 mg/kg)",MIC E. coli CA58 ([1]; CA58),MIC K. pneumoniae CA64 ([2]; CA64),MIC P. aeruginosa CCUG 59347 ([3]; CCUG 59347),MIC P. aeruginosa ATCC 27853 ([6]; ATCC 27853),Structure (SMILES),"MIC E. coli CA58 [1, 10]","MIC K. pneumoniae CA64 [2, 10]","MIC P. aeruginosa CCUG 59347 [3, 10]","MIC P. aeruginosa ATCC 27853 [6, 10]",HK-2 rel to PMB [7],also measured
408000 ng/g,16 µg/mL,8 µg/mL,0.25 µg/mL,0.25 µg/mL,"CCCC[C@H]1NC(=O)[C@H](CCN)NC(=O)[C@@H](NC(=O)[C@H](CN)NC(=O)[C@@H](NC(=O)C[C@H](CN)c2cc(Cl)cc(Cl)c2)[C@@H](C)O)CCNC(=O)[C@H]([C@@H](C)O)NC(=O)[C@H](CCN)NC(=O)[C@H](CCN)NC(=O)[C@H](CC)NC1=O [Example 28, (S)-4-amino-3-(3,5- dichlorophenyl)butanoyl- Thr-Dap- Cyclo[Dab-Dab- DnorLeu-Abu-Dab- Dab-Thr]] (X18-T[Dap][Dab][Dab][dNle][Abu][Dab][Dab]T; lactam 3-C)",,,,,68.5,MIC A. baumannii NCTC 13424 ([5]; NCTC 13424): 0.06 µg/mL
252000 ng/g,8 µg/mL,16 µg/mL,0.5 µg/mL,0.25 µg/mL,"CC[C@@H]1NC(=O)[C@@H](CC(C)C)NC(=O)[C@H](CCN)NC(=O)[C@@H](NC(=O)[C@H](CN)NC(=O)[C@@H](NC(=O)C[C@H](CN)c2cccc(-c3ccsc3)c2)[C@@H](C)O)CCNC(=O)[C@H]([C@@H](C)O)NC(=O)[C@H](CCN)NC(=O)[C@H](CCN)NC1=O [Example 30, (S)-4-amino-3-(3- (thiophen-3-yl)phenyl)butanoyl- Thr-Dap-Cyclo[Dab- Dab-DLeu-Abu-Dab- Dab-Thr]] (X14-T[Dap][Dab][Dab][dL][Abu][Dab][Dab]T; lactam 3-C)",,,,,37.5,MIC A. baumannii NCTC 13424 ([5]; NCTC 13424): 0.06 µg/mL
,16 µg/mL,4 µg/mL,0.25 µg/mL,0.25 µg/mL,"CC[C@@H]1NC(=O)[C@@H](CC(C)C)NC(=O)[C@H](CCN)NC(=O)[C@@H](NC(=O)[C@H](CN)NC(=O)[C@@H](NC(=O)C[C@@H](CN)c2cccc(-c3ccsc3)c2)[C@@H](C)O)CCNC(=O)[C@H]([C@@H](C)O)NC(=O)[C@H](CCN)NC(=O)[C@H](CCN)NC1=O [Example 31, (R)-4-amino-3-(3- (thiophen-3-yl)phenyl)butanoyl- Thr-Dap-Cyclo[Dab- Dab-DLeu-Abu-Dab- Dab-Thr]] (X23-T[Dap][Dab][Dab][dL][Abu][Dab][Dab]T; lactam 3-C)",,,,,,MIC K. pneumoniae ATCC 13822 ([9]; ATCC 13822): 0.25 µg/mL
